From patent US12599672B2, “KRAS proteolysis targeting chimeras” (PAQ Therapeutics Inc., priority 2023, dated 2026)

What was measured:
Assay type in all cases: cell-based
KRAS = molecular target: T1, KRAS (Homo sapiens, UniProt P01116); assay: KRASamp MSD assay; settings: KE39 (KRAS amplified) cells, treated with test compounds for 24 hr, MSD readout of KRAS degradation
T1 construct: endogenous in cells; host or cells: KE39 (KRAS amplified) cells
How it was run: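 KRAS-amplified KE39 cells treated with compound for 24 hr, then lysed in RIPA buffer with protease/phosphatase inhibitors. KRAS protein measured by MSD sandwich immunoassay against a recombinant WT KRAS standard curve; DC50 derived from curve fitting of degradation.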

KRAS G12V = molecular target: T2, KRAS G12V (Homo sapiens, UniProt P01116, G12V); assay: KRAS G12V HiBit assay; settings: SW620-KRAS (G12V)-HiBit-KI cells, compound treatment for 24 hours, class symbols
T2 construct: SW620-KRAS (G12V)-HiBit-KI cell (Pharmaron); host or cells: SW620-KRAS (G12V)-HiBit-KI cells (HiBiT knock-in at the endogenous KRAS locus)
How it was run: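 HiBiT-tagged KRAS G12V cells treated 24 h with compound in a 3-fold, 10-point series (0.3 mM DMSO stock); lytic HiBiT reagent with LgBiT added after 15 min room-temperature equilibration. Degradation calculated against 0.1% DMSO high control.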

KRAS G12D = molecular target: T3, KRAS G12D (Homo sapiens, UniProt P01116, G12D); assay: KRAS G12D HiBit assay; settings: AsPc-1-KRAS (G12D)-HiBit-KI cell, compound treatment for 24 hours, absolute DC50; class symbols
T3 construct: AsPc-1-KRAS (G12D)-HiBit-KI cell (Pharmaron); host or cells: AsPc-1-KRAS (G12D)-HiBit-KI cells (HiBiT knock-in at the endogenous KRAS locus)
How it was run: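 Cells were treated for 24 h with compounds in a 3-fold, 10-point dilution series from a 0.3 mM DMSO stock, then equilibrated 15 min at room temperature. KRAS G12D HiBiT levels were read by luminescence after lytic Nano-Glo HiBiT reagent with LgBiT; inhibition calculated relative to 0.1% DMSO high control.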

T1 sequence (P01116 1-188 isoform P01116-2): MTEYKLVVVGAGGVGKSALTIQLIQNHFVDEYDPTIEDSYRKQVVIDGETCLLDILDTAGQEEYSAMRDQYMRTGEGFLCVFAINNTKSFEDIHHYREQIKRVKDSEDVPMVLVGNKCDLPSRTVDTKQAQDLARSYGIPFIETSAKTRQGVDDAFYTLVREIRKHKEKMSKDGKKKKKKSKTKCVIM
T3 sequence (P01116 1-188 isoform P01116-2 G12D): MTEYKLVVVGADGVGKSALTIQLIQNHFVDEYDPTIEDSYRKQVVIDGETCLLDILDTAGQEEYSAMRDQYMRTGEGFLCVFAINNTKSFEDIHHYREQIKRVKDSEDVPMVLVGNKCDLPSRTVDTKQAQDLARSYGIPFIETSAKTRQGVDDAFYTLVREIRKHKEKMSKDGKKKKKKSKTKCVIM
T2 sequence (P01116 1-188 isoform P01116-2 G12V): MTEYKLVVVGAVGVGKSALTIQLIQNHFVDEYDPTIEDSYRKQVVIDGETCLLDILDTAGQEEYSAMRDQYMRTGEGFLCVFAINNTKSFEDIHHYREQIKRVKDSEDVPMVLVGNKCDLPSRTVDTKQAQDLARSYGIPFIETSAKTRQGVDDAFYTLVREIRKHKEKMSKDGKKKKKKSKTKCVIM

Structure (SMILES) | DC50 (KRAS) [nM] | DC50 (KRAS G12V) [nM] | DC50 (KRAS G12D) [nM]
C#Cc1c(F)ccc2cc(O)cc(-c3ncc4c(N5CCC[C@@](C)(O)C5)nc(OC[C@@]56CCCN5[C@H](COC(=O)N5CCC(N7CC(N8CCC(c9ccc%10c(c9)n(C)c(=O)n%10C9CCC(=O)NC9=O)CC8)C7)CC5)CC6)nc4c3F)c12 (stereo partly drawn) [Compound 414, ((3S,7aS)-7a-(((7-(8-ethynyl-7-fluoro-3-hydroxynaphthalen-1-yl)-8-fluoro-4-((R)-3-hydroxy-3-methylpiperidin-1-yl)pyrido[4,3-d]pyrimidin-2-yl)oxy)methyl)hexahydro-1H-pyrrolizin-3-yl)methyl 4-(3-(4-(1-(2,6-dioxopiperidin-3-yl)-3-methyl-2-oxo-2,3-dihydro-1H-benzo[d]imidazol-5-yl)piperidin-1-yl)azetidin-1-yl)piperidine-1-carboxylate] | ≥ 10 | 10 to 100 | < 100
C#Cc1c(F)ccc2cc(O)cc(-c3ncc4c(N5CCC[C@@](C)(O)C5)nc(OC[C@@]56CCCN5[C@H](COC(=O)N5CCC7(CCC7N7CCC(c8ccc9c(c8)n(C)c(=O)n9C8CCC(=O)NC8=O)CC7)CC5)CC6)nc4c3F)c12 (stereo partly drawn) [Compound 415, ((3S,7aS)-7a-(((7-(8-ethynyl-7-fluoro-3-hydroxynaphthalen-1-yl)-8-fluoro-4-((R)-3-hydroxy-3-methylpiperidin-1-yl)pyrido[4,3-d]pyrimidin-2-yl)oxy)methyl)hexahydro-1H-pyrrolizin-3-yl)methyl 1-(4-(1-(2,6-dioxopiperidin-3-yl)-3-methyl-2-oxo-2,3-dihydro-1H-benzo[d]imidazol-5-yl)piperidin-1-yl)-7-azaspiro[3.5]nonane-7-carboxylate] | ≥ 10 | > 100 | < 100
CCc1c(F)ccc2cc(O)cc(-c3ncc4c(N5CCC[C@@](C)(O)C5)nc(OC[C@@]56CCCN5[C@H](COC(=O)N5CC7(CC(N8CCC(c9ccc%10c(c9)n(C)c(=O)n%10C9CCC(=O)NC9=O)CC8)C7)C5)CC6)nc4c3F)c12 (stereo partly drawn) [Compound 416, ((3S,7aS)-7a-(((7-(8-ethyl-7-fluoro-3-hydroxynaphthalen-1-yl)-8-fluoro-4-((R)-3-hydroxy-3-methylpiperidin-1-yl)pyrido[4,3-d]pyrimidin-2-yl)oxy)methyl)hexahydro-1H-pyrrolizin-3-yl)methyl 6-(4-(1-(2,6-dioxopiperidin-3-yl)-3-methyl-2-oxo-2,3-dihydro-1H-benzo[d]imidazol-5-yl)piperidin-1-yl)-2-azaspiro[3.3]heptane-2-carboxylate] | < 1 | < 10 | < 100
CCc1c(F)ccc2cc(O)cc(-c3ncc4c(N5CCC[C@@](C)(O)C5)nc(OC[C@@]56CCCN5[C@H](COC(=O)N5CCC7(CC5)CC(CN5CCC(c8ccc9c(c8)n(C)c(=O)n9C8CCC(=O)NC8=O)CC5)C7)CC6)nc4c3F)c12 (stereo partly drawn) [Compound 417, ((3S,7aS)-7a-(((7-(8-ethyl-7-fluoro-3-hydroxynaphthalen-1-yl)-8-fluoro-4-((R)-3-hydroxy-3-methylpiperidin-1-yl)pyrido[4,3-d]pyrimidin-2-yl)oxy)methyl)hexahydro-1H-pyrrolizin-3-yl)methyl 2-((4-(1-(2,6-dioxopiperidin-3-yl)-3-methyl-2-oxo-2,3-dihydro-1H-benzo[d]imidazol-5-yl)piperidin-1-yl)methyl)-7-azaspiro[3.5]nonane-7-carboxylate] | < 1 | < 10 | < 100
C#Cc1c(F)ccc2cc(O)cc(-c3ncc4c(N5CCC[C@@](C)(O)C5)nc(OC[C@@]56CCCN5[C@H](COC(=O)N5CC7(CC(CN8CCC(c9ccc%10c(c9)n(C)c(=O)n%10C9CCC(=O)NC9=O)CC8)C7)C5)CC6)nc4c3F)c12 (stereo partly drawn) [Compound 418, ((3S,7aS)-7a-(((7-(8-ethynyl-7-fluoro-3-hydroxynaphthalen-1-yl)-8-fluoro-4-((R)-3-hydroxy-3-methylpiperidin-1-yl)pyrido[4,3-d]pyrimidin-2-yl)oxy)methyl)hexahydro-1H-pyrrolizin-3-yl)methyl 6-((4-(1-(2,6-dioxopiperidin-3-yl)-3-methyl-2-oxo-2,3-dihydro-1H-benzo[d]imidazol-5-yl)piperidin-1-yl)methyl)-2-azaspiro[3.3]heptane-2-carboxylate] | 1 to 10 | < 10 | < 100

Now from value to compound:

DC50 (KRAS) [nM] | DC50 (KRAS G12V) [nM] | DC50 (KRAS G12D) [nM] | Structure (SMILES)
< 1 | < 10 | < 100 | C#Cc1c(F)ccc2cc(O)cc(-c3ncc4c(N5CCC[C@@](C)(O)C5)nc(OC[C@@]56CCCN5[C@H](COC(=O)N5CCC(CN7CCC(c8cc9c(cc8F)n(C8CCC(=O)NC8=O)c(=O)n9C)CC7)CC5)CC6)nc4c3F)c12 (stereo partly drawn) [Compound 407, ((3S,7aS)-7a-(((7-(8-ethynyl-7-fluoro-3-hydroxynaphthalen-1-yl)-8-fluoro-4-((R)-3-hydroxy-3-methylpiperidin-1-yl)pyrido[4,3-d]pyrimidin-2-yl)oxy)methyl)hexahydro-1H-pyrrolizin-3-yl)methyl 4-((4-(1-(2,6-dioxopiperidin-3-yl)-6-fluoro-3-methyl-2-oxo-2,3-dihydro-1H-benzo[d]imidazol-5-yl)piperidin-1-yl)methyl)piperidine-1-carboxylate]
< 1 | < 10 | < 100 | Cn1c(=O)n(C2CCC(=O)NC2=O)c2ccc(C3CCN(CC4CCN(C(=O)OC[C@@H]5CC[C@]6(COc7nc(N8CCC[C@@](C)(O)C8)c8cnc(-c9cc(O)cc%10ccc(F)c(Cl)c9%10)c(F)c8n7)CCCN56)CC4)CC3)cc21 (stereo partly drawn) [Compound 409, ((3S,7aS)-7a-(((7-(8-chloro-7-fluoro-3-hydroxynaphthalen-1-yl)-8-fluoro-4-((R)-3-hydroxy-3-methylpiperidin-1-yl)pyrido[4,3-d]pyrimidin-2-yl)oxy)methyl)hexahydro-1H-pyrrolizin-3-yl)methyl 4-((4-(1-(2,6-dioxopiperidin-3-yl)-3-methyl-2-oxo-2,3-dihydro-1H-benzo[d]imidazol-5-yl)piperidin-1-yl)methyl)piperidine-1-carboxylate]
< 1 | < 10 | < 100 | Cn1c(=O)n(C2CCC(=O)NC2=O)c2ccc(C3CCN(CC4CCN(C(=O)OC[C@@H]5CC[C@]6(COc7nc(N8CCC[C@@](C)(O)C8)c8cnc(-c9cc(O)cc%10ccc(F)c(F)c9%10)c(F)c8n7)CCCN56)CC4)CC3)cc21 (stereo partly drawn) [Compound 410, ((3S,7aS)-7a-(((7-(7,8-difluoro-3-hydroxynaphthalen-1-yl)-8-fluoro-4-((R)-3-hydroxy-3-methylpiperidin-1-yl)pyrido[4,3-d]pyrimidin-2-yl)oxy)methyl)hexahydro-1H-pyrrolizin-3-yl)methyl 4-((4-(1-(2,6-dioxopiperidin-3-yl)-3-methyl-2-oxo-2,3-dihydro-1H-benzo[d]imidazol-5-yl)piperidin-1-yl)methyl)piperidine-1-carboxylate]
< 1 | < 10 | < 100 | C#Cc1c(F)ccc2cc(O)cc(-c3ncc4c(N5CCC[C@@](C)(O)C5)nc(OC[C@@]56CCCN5[C@H](COC(=O)N5CCC7(CCC(N8CCC(c9ccc%10c(c9)n(C)c(=O)n%10C9CCC(=O)NC9=O)CC8)CC7)CC5)CC6)nc4c3F)c12 (stereo partly drawn) [Compound 413, ((3S,7aS)-7a-(((7-(8-ethynyl-7-fluoro-3-hydroxynaphthalen-1-yl)-8-fluoro-4-((R)-3-hydroxy-3-methylpiperidin-1-yl)pyrido[4,3-d]pyrimidin-2-yl)oxy)methyl)hexahydro-1H-pyrrolizin-3-yl)methyl 9-(4-(1-(2,6-dioxopiperidin-3-yl)-3-methyl-2-oxo-2,3-dihydro-1H-benzo[d]imidazol-5-yl)piperidin-1-yl)-3-azaspiro[5.5]undecane-3-carboxylate]
< 1 | < 10 | < 100 | C#Cc1c(F)ccc2cc(O)cc(-c3ncc4c(N5CCC[C@@](C)(O)C5)nc(OC[C@@]56CCCN5[C@H](COC(=O)N5CC7(CC(N8CCC(c9ccc%10c(c9)n(C)c(=O)n%10C9CCC(=O)NC9=O)CC8)C7)C5)CC6)nc4c3F)c12 (stereo partly drawn) [Compound 419, ((3S,7aS)-7a-(((7-(8-ethynyl-7-fluoro-3-hydroxynaphthalen-1-yl)-8-fluoro-4-((R)-3-hydroxy-3-methylpiperidin-1-yl)pyrido[4,3-d]pyrimidin-2-yl)oxy)methyl)hexahydro-1H-pyrrolizin-3-yl)methyl 6-(4-(1-(2,6-dioxopiperidin-3-yl)-3-methyl-2-oxo-2,3-dihydro-1H-benzo[d]imidazol-5-yl)piperidin-1-yl)-2-azaspiro[3.3]heptane-2-carboxylate]
